Patent US20240300904A1, “PYRIDAZINONES FOR THE TREATMENT OR PREVENTION OF HYPERTENSION” (UNIVERSITETET I OSLO, priority 2021, published 2024)

Experiments:
[1] = biological target: T1, human (h) natriuretic peptide receptor A (hNPR-A) (Homo sapiens, UniProt P16066); experiment: AlphaScreen assay for cGMP: BNP-mediated NPR-A activity (cGMP production); format: cell-based; conditions: conc. response of compound + 0.1 nM BNP; for EC50: NPR-A-expressing HEK293 cells, read-out: -LogEC50 (compound) (converted); for Emax: percentage of maximum BNP-mediated cGMP production, read-out: Max Response
T1 construct: expressed in transfected cells
T1 sequence (P16066 33-1061): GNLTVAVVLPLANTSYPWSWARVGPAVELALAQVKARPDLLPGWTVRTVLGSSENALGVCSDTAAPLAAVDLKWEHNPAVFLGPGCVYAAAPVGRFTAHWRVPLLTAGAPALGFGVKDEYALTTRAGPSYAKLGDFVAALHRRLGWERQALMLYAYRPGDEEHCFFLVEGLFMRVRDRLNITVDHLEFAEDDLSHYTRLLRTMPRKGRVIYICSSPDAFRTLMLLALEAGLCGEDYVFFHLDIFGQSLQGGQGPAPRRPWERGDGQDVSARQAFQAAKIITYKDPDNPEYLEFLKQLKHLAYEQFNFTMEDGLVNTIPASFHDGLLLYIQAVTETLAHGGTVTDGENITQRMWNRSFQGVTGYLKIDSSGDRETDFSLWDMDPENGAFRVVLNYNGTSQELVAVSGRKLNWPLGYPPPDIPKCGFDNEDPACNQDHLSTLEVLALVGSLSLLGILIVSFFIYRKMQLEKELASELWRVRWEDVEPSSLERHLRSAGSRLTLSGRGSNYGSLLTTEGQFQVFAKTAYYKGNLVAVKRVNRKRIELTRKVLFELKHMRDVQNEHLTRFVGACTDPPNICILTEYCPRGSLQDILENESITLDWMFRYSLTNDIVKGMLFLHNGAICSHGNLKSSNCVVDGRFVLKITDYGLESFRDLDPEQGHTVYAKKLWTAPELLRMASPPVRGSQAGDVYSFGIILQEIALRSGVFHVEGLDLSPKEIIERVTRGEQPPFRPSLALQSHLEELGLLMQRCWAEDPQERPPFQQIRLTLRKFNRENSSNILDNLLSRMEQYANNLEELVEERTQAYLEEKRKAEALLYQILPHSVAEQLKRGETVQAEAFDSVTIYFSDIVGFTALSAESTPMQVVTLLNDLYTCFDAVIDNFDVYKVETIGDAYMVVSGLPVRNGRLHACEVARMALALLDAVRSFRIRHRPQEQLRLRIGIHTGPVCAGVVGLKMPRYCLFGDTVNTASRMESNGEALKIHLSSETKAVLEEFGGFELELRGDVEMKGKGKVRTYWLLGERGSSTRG
T1 sequence (P16860 103-134 partner limits assumed): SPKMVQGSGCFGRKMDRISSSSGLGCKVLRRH
Experimental: (§1) QBIHEK293A cells stably transfected with human (h) natriuretic peptide receptor A (hNPR-A) and hNPR-B were made as described in Bach et al., Naunyn Schmiedebergs Arch. Pharmacol. 2014; 387:5-14. Cells were grown in DMEM (Dulbecco's Modified Eagle's Medium, Gibco®, ThermoFischer Scientific) supplemented with 10% Fetal Bovine Serum (FBS), 100 U/ml penicillin, 0.1 mg/ml streptomycin, and 0.4 mg/ml G418 (geneticin) as selection antibiotic.
(§2) The AlphaScreen assay for cGMP (Perkin Elmer) was performed as described in Bach et al. (see above). NPR-A and NPR-B expressing HEK293 cells were split the day before the experiment and harvested using an EDTA solution (Versene, Invitrogen, ThermoFischer Scientific). A final concentration of 6000 cells/well was re-suspended in stimulation buffer (5 mM HEPES in HBSS at pH 7.4, 0.1% BSA) with IBMX (0.7 mM final). Compounds were dissolved in stimulation buffer and added to wells in increasing concentrations. Cells were incubated with the indicated compounds 20 minutes before addition of agonists (human BNP, human CNP or human proBNP) in various concentrations. Cells were stimulated for 20 minutes with agonist before the reactions were stopped (i.e. cells lysed) by adding the AlphaScreen Acceptor bead mix (Acceptor beads-anti-cGMP antibody and 0.5% Tween-20 in 5 mM HEPES buffer at pH 7.4). After 1 hour incubation, the Donor bead mix (Donor beads, biotinylated cGMP, 0.5% Tween-20 in 5 mM HEPES buffer at pH 7.4) was added (40 μl total volume) and incubation continued for 2 hours. The luminescence signals were analyzed quantitatively by reading of the plates on the EnVision® Multilabel Plate Reader (Perkin Elmer) using AlphaScreen emission 570 nm filter.

HeLa cells = experiment: MTT assay (cytotoxicity); format: cell-based; conditions: 24 and 48 h, compared with compounds 3 and 11
Experimental: Cells were incubated for 24 and 48 h with increasing concentrations of the indicated compound. The data represent formazan formation (absorbance) as a percentage of the negative control (1% DMSO).
The MTT (3-(4,5-dimethylthiazol-2-yl)-2,5-diphenyltetrazolium bromide) tetrazolium reduction assay was used to measure cytotoxicity of the compounds in vitro. Viable cells with active metabolism convert MTT into a purple colored formazan product with an absorbance maximum near 570 nm. HeLa cells were plated in 96-well plates in culture medium (DMEM (Dulbecco's Modified Eagle's Medium, Gibco®, ThermoFischer Scientific) supplemented with 10% Fetal Bovine Serum (FBS), 100 U/ml penicillin, 0.1 mg/ml streptomycin) the day before experiments. Cells were incubated for 24 or 48 h at 37° C. with increasing concentrations of each compound (in 1% DMSO). 1% DMSO and 20 mM H2O2 in culture medium were used as negative and positive control, respectively. MTT solution at a final concentration of 0.45 mg/ml was added to the wells and cells incubated for 1 to 4 hours at 37° C. Solubilization solution (40% (vol/vol) dimethylformamide (DMF), 2% (vol/vol) glacial acetic acid and 16% (wt/vol) sodium dodecyl sulfate (SDS)) was added to each well to dissolve formazan crystals. Absorbance was measured at 570 nm.

NPR-A = biological target: T2, NPR-A (Homo sapiens, UniProt P16066); experiment: Whole-cell binding assays with 125I-ANP in intact NPR-A expressing HEK293 cells
T2 construct: expressed in transfected cells; host or cells: HEK293 cells expressing NPR-A
T2 sequence (P16066 33-1061): T1 sequence (P16066 33-1061)
Experimental: as §1
Binding assays were carried out in intact NPR-A expressing HEK293 cells as described in Dickey et al., J Biol Chem. 2009; 284: 19196-202.

[2] = biological target: T3, human (h) natriuretic peptide receptor A (hNPR-A) (Homo sapiens, UniProt P16066); experiment: AlphaScreen assay for cGMP: proBNP-mediated NPR-A activity; format: cell-based; conditions: conc. response of compound + 2 nM proBNP
T3 construct: expressed in transfected cells
T3 sequence (P16066 33-1061): T1 sequence (P16066 33-1061)
T3 sequence (P16860 27-134 partner): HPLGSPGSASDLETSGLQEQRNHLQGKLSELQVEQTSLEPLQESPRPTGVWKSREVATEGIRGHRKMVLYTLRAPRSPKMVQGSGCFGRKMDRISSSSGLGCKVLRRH
Experimental: as §1
as §2, with “Cells were stimulated for 20 minutes with agonist before the reactions were stopped (i.e. cells lysed) by adding the AlphaScreen Acceptor bead mix (Acceptor beads-anti-cGMP antibody and 0.5% Tween-20 in 5 mM HEPES buffer at pH 7.4). After 1 hour incubation, the Donor bead mix (Donor beads, biotinylated cGMP, 0.5% Tween-20 in 5 mM HEPES buffer at pH 7.4) was added (40 μl total volume) and incubation continued for 2 hours.” left out

Compound | EC50 [1] | Emax [1] | also measured
O=C(Cn1ncc(Cl)c(Cl)c1=O)NC1CC1c1cnn(-c2ccccc2)c1 (racemic) [Compound 18, rac-2-(4,5-dichloro-6-oxopyridazin-1(6H)-yl)-N-((1R,2S)-2-(1-phenyl-1H-pyrazol-4-yl)cyclopropyl)acetamide] | 0.2 µM | 30.7% | 
O=C(Cn1ncc(Cl)c(Cl)c1=O)C12CC3CC(CC(C3)C1)C2 [Compound 1] | 2.51 µM | 53.1% | 
O=C(Cn1ncc(Cl)c(Cl)c1=O)c1ccc(Cl)cc1 [Compound 2] | 0.251 µM | 45.3% | toxicity in MTT assay relative to corresponding dichloro compounds (HeLa cells): lower toxicity; Emax (NPR-A; compound + 50 pM 125I-ANP, response of 50 pM 125I-ANP defined as 100%, read-out: Max Response): 173%; EC50 (NPR-A; conc. response compound + 50 pM 125I-ANP, NPR-A HEK293 cells, read-out: -LogEC50 (compound) (converted)): 0.002 µM; Fold change in Bmax (NPR-A; saturation binding, conc. response 125I-ANP + 10 μM compound): 2.3; EC50 ([2]; NPR-A-expressing HEK293 cells, read-out: -LOGEC50 (compound) (converted)): 1 µM; Emax ([2]; percentage of maximum proBNP-mediated cGMP production, read-out: Max response): 99%
O=C(Cn1nccc(Cl)c1=O)c1ccc(Cl)cc1 [Compound 3, 4-chloro-2-(2-(4-chlorophenyl)-2-oxoethyl)pyridazin-3(2H)-one] | 12.6 µM | 48.6% | 
O=C(Cn1ncc(Cl)cc1=O)c1ccc(Cl)cc1 [Compound 4, 5-chloro-2-(2-(4-chlorophenyl)-2-oxoethyl)pyridazin-3(2H)-one] | 5.01 µM | 35.2% | 
COc1ccc(C(=O)Cn2ncc(Cl)c(Cl)c2=O)cc1 [Compound 5, 4,5-dichloro-2-(2-(4-methoxyphenyl)-2-oxoethyl) pyridazin-3(2H)-one] | 3.98 µM | 38.6% | 
N#Cc1ccc(C(=O)Cn2ncc(Cl)c(Cl)c2=O)cc1 [Compound 6, 4-(2-(4,5-dichloro-6-oxopyridazin-1(6H)-yl)acetyl) benzonitrile] | 2.51 µM | 44.1% | 
O=C(Cn1ncc(Cl)c(Cl)c1=O)c1ccc(Cl)s1 [Compound 7] | 0.251 µM | 33.4% | 
O=C(Cn1ncc(Cl)cc1=O)c1ccc(Cl)s1 [Compound 8, 5-chloro-2-(2-(5-chlorothiophen-2-yl)-2-oxoethyl) pyridazin-3(2H)-one] | 1.58 µM | 27% | 
O=C(Cn1ncc(Cl)c(Cl)c1=O)c1ccc2c(c1)CCCC2 [Compound 9] | 1.26 µM | 27.7% | 
O=C(Cn1ncc(Br)c(Br)c1=O)c1ccc(Cl)cc1 [Compound 10] | 0.0794 µM | 37% | 
O=C(Cn1ncc(Cl)c(Cl)c1=O)c1ccc(Cl)cc1Cl [Compound 11, 4,5-dichloro-2-[2-(2,4-dichlorophenyl)-2-oxo-ethyl]pyridazin-3-one] | 0.2 µM | 42.5% | 
O=C(Cn1ncc(Cl)c(Cl)c1=O)c1ccc(Cl)c(F)c1 [Compound 12, 4,5-dichloro-2-[2-(4-chloro-3-fluoro-phenyl)-2-oxo-ethyl]pyridazin-3-one] | 0.398 µM | 44.3% | 
Cc1cc(Cl)ccc1C(=O)Cn1ncc(Cl)c(Cl)c1=O [Compound 13, 4,5-dichloro-2-[2-(4-chloro-2-methyl-phenyl)-2-oxo-ethyl]pyridazin-3-one] | 0.1 µM | 41% | 
Cc1cc(C(=O)Cn2ncc(Cl)c(Cl)c2=O)ccc1Cl [Compound 14, 4,5-dichloro-2-[2-(4-chloro-3-methyl-phenyl)-2-oxo-ethyl]pyridazin-3-one] | 2.51 µM | 45.4% | 
CC(C)c1ccc(CCNC(=O)Cn2ncc(Cl)c(Cl)c2=O)cc1 [Compound 15, 2-(4,5-dichloro-6-oxopyridazin-1(6H)-yl)-N-(4-isopropylphenethyl)acetamide] | 0.794 µM | 27.8% | 
O=C(Cn1ncc(Cl)c(Cl)c1=O)NCCc1cnn(-c2ccccc2)c1 [Compound 16, 2-(4,5-dichloro-6-oxopyridazin-1(6H)-yl)-N-(2-(1-phenyl-1H-pyrazol-4-yl)ethyl)acetamide] | 0.794 µM | 41% | 
O=C(Cn1ncc(Cl)c(Cl)c1=O)NCCc1c(Cl)cccc1Cl [Compound 17, 2-(4,5-dichloro-6-oxopyridazin-1(6H)-yl)-N-(2,6-dichlorophenethyl)acetamide] | 0.794 µM | 39.4% | 
O=C(Cn1ncc(Cl)c(Cl)c1=O)Nc1cnn(-c2ccccc2)c1 [Compound 19, 2-(4,5-dichloro-6-oxopyridazin-1(6H)-yl)-N-(1-phenyl-1H-pyrazol-4-yl)acetamide] | 1 µM | 45.7% | 
O=C(Cn1ncc(Cl)c(Cl)c1=O)NCc1cnn(-c2ccccc2)c1 [Compound 20, 2-(4,5-dichloro-6-oxopyridazin-1(6H)-yl)-N-((1-phenyl-1H-pyrazol-4-yl)methyl)acetamide] | 6.31 µM | 49.4% | 
